This is an account of results in ChEMBL document CHEMBL2440100, “Therapeutic potential of the peptide leucine arginine as a new nonplant bowman-birk-like serine protease inhibitor” (J Med Chem, 2013).

A short description of the test: Inhibition of bovine trypsin using benzoyl-L-arginine p-nitroanilide as substrate after 5 to 60 mins. The arrangement: species or system Bos taurus.

Where a SMILES comes first, the peptide text is derived from it. Bridges are numbered along the chain shown (N, C = ends).

The Ki is a measure of affinity in units of concentration, obtained from inhibition or displacement. A high value points to weaker binding. In turn, `CC(C)C[C@H](N)C(=O)N[C@H](C(=O)N[C@@H](CCCNC(=N)N)C(=O)NCC(=O)N[C@H]1CSSC[C@@H](C(=O)N[C@@H](Cc2ccccc2)C(=O)N[C@H](C(=O)N[C@@H](CCCNC(=N)N)C(=O)O)C(C)C)NC(=O)[C@@H]2CCCN2C(=O)[C@H](CCCCN)NC(=O)[C@H](C)NC(=O)[C@@H]2CCCN2C(=O)[C@H](Cc2ccc(O)cc2)NC(=O)[C@H](CO)NC(=O)[C@H](CCCCN)NC(=O)[C@H]([C@@H](C)O)NC(=O)[C@H](Cc2c[nH]c3ccccc23)NC1=O)C(C)C` (H-LVRGCWTKSYPAKPCFVR-OH; disulfide 5-15) registered a Ki of 155 nM.
